Data from ChEMBL document CHEMBL1201862, “PubChem BioAssay data set” (2004).
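Values below derive from 48-hour exposures of cells grown in 96-well plates, with endpoints linearly interpolated between the two concentrations bracketing the appropriate inhibition level. GI50 = concentration required for 50% inhibition of growth.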 Activity calls are given as the source filed them. No stated cut-off is given here; in the data, active = GI50 up to about 1.1 µM and inactive = higher.

How the values were obtained:
Experiment in all cases: NCI-60 cell line screen, 48 h
SNB-19 = system: SNB-19
M14 = system: M14
K562 = system: K562
OVCAR-3 = system: OVCAR-3
HOP-62 = system: HOP-62
Malme-3M = system: Malme-3M
SF-539 = system: SF-539
SN12C = system: SN12C
COLO 205 = system: COLO 205
U-251 = system: U-251
SK-MEL-5 = system: SK-MEL-5
NCI-H522 = system: NCI-H522
CAKI-1 = system: CAKI-1
CCRF-CEM = system: CCRF-CEM
A498 = system: A498
OVCAR-5 = system: OVCAR-5
HOP-92 = system: HOP-92
A549 = system: A549
HCC 2998 = system: HCC 2998
UO-31 = system: UO-31

Measured: GI50

O=C(CC1Sc2ccccc2NC1=O)Nc1ccccc1[N+](=O)[O-] (stereo not drawn)
inactive: SNB-19 > 100 µM | M14 > 100 µM | K562 > 100 µM | OVCAR-3 > 100 µM | HOP-62 > 100 µM | Malme-3M > 100 µM | SF-539 > 100 µM | SN12C > 100 µM | COLO 205 > 100 µM | U-251 > 100 µM | SK-MEL-5 > 100 µM | NCI-H522 17.1 µM | CAKI-1 > 100 µM | CCRF-CEM > 100 µM | A498 > 100 µM | OVCAR-5 > 100 µM | HOP-92 > 100 µM | A549 > 100 µM | HCC 2998 > 100 µM | UO-31 > 100 µM

c1ccc2c(NCCCCCCCCNc3cccc4ccccc34)cccc2c1
inactive: SNB-19 > 100 µM | M14 19.9 µM | K562 21.5 µM | OVCAR-3 34 µM | HOP-62 > 100 µM | Malme-3M 22 µM | SF-539 27 µM | SN12C 35.6 µM | COLO 205 18.6 µM | U-251 63.2 µM | SK-MEL-5 > 10 µM | NCI-H522 16.4 µM | CAKI-1 19.7 µM | CCRF-CEM 14.6 µM | A498 44.1 µM | OVCAR-5 46 µM | HOP-92 18.2 µM | A549 > 100 µM | HCC 2998 > 100 µM | UO-31 26.2 µM

Cc1[nH]c(=O)[nH]c(=O)c1/C=C/C(=O)NC(CO)CC(C)C (stereo not drawn)
inactive: SNB-19 356 µM | K562 179 µM | OVCAR-3 164 µM | HOP-62 > 375 µM | Malme-3M 233 µM | SF-539 > 375 µM | SN12C 274 µM | COLO 205 242 µM | U-251 > 343 µM | SK-MEL-5 > 375 µM | NCI-H522 114 µM | CAKI-1 146 µM | CCRF-CEM 181 µM | A498 > 375 µM | OVCAR-5 > 265 µM | HOP-92 17.5 µM | A549 349 µM | HCC 2998 222 µM | UO-31 > 375 µM

NCCCCCC(CCN)SCC1OC(n2cnc3c(N)ncnc32)C(O)C1O (stereo not drawn)
inactive: SNB-19 615 µM | K562 436 µM | OVCAR-3 > 1500 µM | HOP-62 > 809 µM | Malme-3M > 1280 µM | SF-539 483 µM | SN12C > 574 µM | COLO 205 > 798 µM | U-251 687 µM | SK-MEL-5 > 1110 µM | NCI-H522 822 µM | CAKI-1 411 µM | CCRF-CEM 891 µM | A498 > 1500 µM | OVCAR-5 > 1500 µM | HOP-92 > 618 µM | A549 > 1500 µM | HCC 2998 > 1150 µM | UO-31 394 µM
